Source: patent US20250360069A1, “SUNSCREEN COMPOSITION FOR LACTOBACILLUS AND S. EPIDERMIDIS PROTECTION ON SKIN” (DSM IP Assets B.V., priority 2022, published 2025)

What was measured:
[1] = test system: Lactobacillus crispatus CIP 103604; assay: In vitro UV model: bacterial survival upon UV irradiation (96-well, MPN count); format: cell-based; settings: sample 20% v/v, UV 50 SED (500 mJ/cm^2 UVA+UVB), after 4 h; for L. crispatus survival: compared to untreated and non-irradiated control
Protocol: (§1) The microbial strains used in this study are listed below and their cultures are reconstituted according to the direction of the supplier collection center of the reference strain, CRBIP (Institut Pasteur Collection, France) or ATCC (American Type Culture Collection, USA): • Lactobacillus crispatus CIP 103604 • Staphylococcus epidermidis ATCC 12228 The 96-well plate was filled with the culture media (140 μL) and a calibrated inoculum (20 μL) of each bacterial strain was added to reach […] colony forming units per milliliter (cfu/mL) final concentration. After contamination, the sample was added (40 μL; 20% v/v) in triplicate and was thoroughly mixed to ensure a homogeneous distribution. Then, the plate was submitted to UV stress through an UV irradiator system (BioSun, Vilber Lourmat, France) according to the UV doses presented Table 1 below. The specific UV dose selected was between 10 and 49% survival of the microbial population. For the microbial population counts, aliquots of the contaminated samples of L. crispatus and S. epidermidis were serially diluted (4 decimal dilutions followed by 8 binary dilutions, in triplicate) in culture media on 96-wells plates with triphenyltetrazolium. Then, the plates were incubated at 37° C.±2,5° C. during 48 h taking into account the respiratory type of each strain. After 48 h at the optimal growing conditions, the last dilution showing a pink color (triphenyltetrazolium) or turbidity indicated the contamination rate and allowed the determination of the decrease rate of microbial population (most probable number MPN method). Controls performed during this experiment were the culture medium with bacteria incubated without UV stress. The microbial population counts were expressed in cfu/mL and were the average of experiment done in triplicate. The use level of the single UV filter and combinations in the test formulations was calculated to obtain a predicted in vitro SPF value of 5.75+/−0.15 and 23.45+/−0.65, respectively (Table 2). The UV filters were mixed in the two oils, Tegosoft XC (55%) and Miglyol 829 Eco (ad100%) and the emulsifier Tween 80 (5%). The effect of selected UV irradiation conditions on the survival of microbial population of L. crispatus and S. epidermidis in the presence of the tested samples 1-10 at 20% v/v, was compared with the corresponding strain in the absence of samples 1-10 and without exposure to UV irradiation (control). The results after the 4-hour incubation were compared to the population of bacteria incubated without UV stress (determination of bacterial population survival) and were expressed in percentage of survival. The relative percentage of protection (%) was calculated from the difference between the survival percentages of samples and vehicle control (with UV irradiation) and divided to the survival percentage of the vehicle control. Consequently, the survival of each microbial population and the relative protection by the UV filter(s) were calculated and are summarized in the Table 2.

[2] = test system: Staphylococcus epidermidis ATCC 12228; assay: as above; format: cell-based; settings: sample 20% v/v, UV 15 SED (150 mJ/cm^2 UVA+UVB), after 4 h; for S. epidermidis survival: compared to untreated and non-irradiated control
Protocol: as §1

Row | Compound | L. crispatus relative protection by the UV filter(s) vs. vehicle control [1] | L. crispatus survival [1] [%] | S. epidermidis relative protection by the UV filter(s) vs. vehicle control [2] | S. epidermidis survival [2] [%]
1 | CCCCC(CC)COC(=O)C(C#N)=C(c1ccccc1)c1ccccc1 (stereo not shown) [Inv. 1, Octocrylene] | (+300) % | 50 | (+59) % | 63
2 | CCCCC(CC)COC(=O)c1ccc(Nc2nc(Nc3ccc(C(=O)OCC(CC)CCCC)cc3)nc(Nc3ccc(C(=O)OCC(CC)CCCC)cc3)n2)cc1 (stereo not shown) [Inv. 3, Ethylhexyl Triazone] | (+100) % | 25 | (+59) % | 63
3 | CCCCC(CC)COC(=O)c1ccccc1O (stereo not shown) [Ref. 1, Ethylhexyl Salicylate] | (+59) % | 20 | (+100) % | 79
4 | CCCCC(CC)COc1ccc(-c2nc(-c3ccc(OC)cc3)nc(-c3ccc(OCC(CC)CCCC)cc3O)n2)c(O)c1 (stereo not shown) [Ref. 2, Bis-Ethylhexyloxyphenol Methoxyphenyl Triazine] | (+59) % | 20 | (+100) % | 79
